# Source: ChEMBL document CHEMBL3608212, “Design, synthesis, and in vivo activity of novel inhibitors of delta-5 desaturase for the treatment of metabolic syndrome” (Bioorg Med Chem Lett, 2015)
# Experiments:
# [1] = target: T1, Acyl-CoA (8-3)-desaturase (Homo sapiens, UniProt O60427); test: Inhibition of liver delta-5 desaturase (unknown origin)
# Target sequence in this assay (O60427 whole entry): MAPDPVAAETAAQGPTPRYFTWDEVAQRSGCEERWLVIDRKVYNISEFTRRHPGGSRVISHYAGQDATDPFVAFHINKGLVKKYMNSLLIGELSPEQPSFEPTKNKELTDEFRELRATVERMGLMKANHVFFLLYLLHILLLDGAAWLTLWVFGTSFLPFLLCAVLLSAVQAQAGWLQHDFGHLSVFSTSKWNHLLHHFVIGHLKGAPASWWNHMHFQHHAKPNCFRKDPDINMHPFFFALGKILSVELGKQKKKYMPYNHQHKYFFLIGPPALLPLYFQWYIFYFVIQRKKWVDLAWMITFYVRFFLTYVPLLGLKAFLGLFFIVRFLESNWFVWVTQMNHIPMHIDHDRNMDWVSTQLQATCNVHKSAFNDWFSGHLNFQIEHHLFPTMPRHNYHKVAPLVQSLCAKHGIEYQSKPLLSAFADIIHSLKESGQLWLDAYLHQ
# [2] = Ratio of plasma concentration in mouse at 30 mg/kg, po after 0.5 hrs to IC50 for liver delta-5 desaturase (unknown origin); type: ADME, organism-based; conditions: in vivo
# Mus musculus [3] = test: In vivo inhibition of delta-5 desaturase in mouse liver assessed as conversion of [14C]-DGLA to [14C]-arachidonic acid at 30 mg/kg, po after 2.5 hrs by TLC analysis relative to control; type: functional
# [4] = Plasma concentration in mouse at 30 mg/kg, po after 0.5 hrs by LC/MS-MS analysis; type: ADME, organism-based
# [5] = target: T1, Acyl-CoA (8-3)-desaturase; test: Inhibition of liver delta-5 desaturase (unknown origin) at 1 uM
# Target sequence in this assay (O60427 whole entry, looked up): as the sequence (O60427 whole entry) above
# [6] = Plasma concentration in mouse at 60 mg/kg, po after 0.5 hrs by LC/MS-MS analysis; type: ADME, organism-based
# Mus musculus [7] = test: In vivo inhibition of delta-5 desaturase in mouse liver assessed as conversion of [14C]-DGLA to [14C]-arachidonic acid at 60 mg/kg, po after 2.5 hrs by TLC analysis relative to control; type: functional
# [8] = Ratio of plasma concentration in mouse at 60 mg/kg, po after 0.5 hrs to IC50 for liver delta-5 desaturase (unknown origin); type: ADME, organism-based; conditions: in vivo
IC50 [1],Compound,other results
11 nM,Clc1cccc(Nc2ncnc3ccccc23)c1,
58 nM,Fc1ccc2[nH]nc(Nc3cccc(Cl)c3)c2c1,Ratio [2]: 242; inhibition in vivo at 30 mg/kg (Mus musculus [3]): 49%; concentration at 0.5 h [4]: 14.1 µM
260 nM,Clc1cccc(Nc2ncnc3sccc23)c1,
173 nM,Clc1cccc(NC2CCc3ccccc32)c1 (stereo not drawn),
21 nM,Clc1cccc(Nc2n[nH]c3ccc(Br)cc23)c1,
84 nM,Clc1cccc(Nc2n[nH]c3ccccc23)c1,Ratio [2]: 151; inhibition in vivo at 30 mg/kg (Mus musculus [3]): 42%; concentration at 0.5 h [4]: 12.7 µM
59 nM,Fc1cccc(Nc2n[nH]c3ccccc23)c1,Ratio [2]: 160; inhibition in vivo at 30 mg/kg (Mus musculus [3]): 18%; concentration at 0.5 h [4]: 9.45 µM
245 nM,Nc1ccccc1C(=O)Nc1cc(Cl)cc(Cl)c1,
155 nM,Nc1ccccc1C(=O)Nc1ccc(F)c(Cl)c1,
254 nM,FC(F)(F)c1ccc2[nH]nc(Nc3cccc(Cl)c3)c2c1,
15 nM,COc1ccc(O)c(C(=O)Nc2cccc(Cl)c2)c1,
371 nM,Clc1cccc(Nc2nccc3occc23)c1,
67 nM,Nc1ccc(F)cc1C(=O)Nc1cccc(Cl)c1,
5 nM,Clc1cccc(Nc2n[nH]c3ccc(Cl)cc23)c1,
18 nM,Clc1cccc(Nc2ccnc3ccccc23)c1,
,Nc1ccccc1C(=O)Nc1ccccc1Cl,inhibition [5]: 39%
17 nM,Clc1cccc(Nc2cccc3ccccc23)c1,
58 nM,Nc1ccccc1C(=O)Nc1cccc(Cl)c1,
925 nM,CCOc1ccc(O)c(C(=O)Nc2cccc(Cl)c2)c1,
174 nM,O=C(Nc1cccc(Cl)c1)c1ccccc1O,
34 nM,Nc1ccc(Cl)cc1C(=O)Nc1cccc(Cl)c1,
843 nM,CC(C)c1cccc(NC(=O)c2ccccc2N)c1,
516 nM,Nc1ccccc1C(=O)Nc1cccc(F)c1,
50 nM,Clc1cccc(Nc2ncnc3ccsc23)c1,
> 3000 nM,FC(F)(F)Oc1ccc2[nH]nc(Nc3cccc(Cl)c3)c2c1,
,Nc1ccccc1C(=O)Nc1ccc(Cl)cc1,inhibition [5]: 36%
6 nM,Cc1ccc2[nH]nc(Nc3cccc(Cl)c3)c2c1,
8 nM,COc1ccc2[nH]nc(Nc3cccc(Cl)c3)c2c1,Ratio [2]: 652; inhibition in vivo at 30 mg/kg (Mus musculus [3]): 75%; concentration at 0.5 h [4]: 5.21 µM; concentration at 0.5 h [6]: 14 µM; inhibition in vivo at 60 mg/kg (Mus musculus [7]): 97%; Ratio [8]: 1753
